# Experimental data taken from patent publication US11672795B2, “Compositions and methods for treating pulmonary vascular disease” (UNIVERSITY OF PITTSBURGH-OF THE COMMONWEALTH SYSTEM OF …, priority 2016, dated 2023).
# Legend:
# PAAFs = assay: PAAF-dependent ECM remodelling on cytokine stimulation (RT-qPCR, picrosirius red); assay type: cell-based; conditions: for TGF-b-induced ECM related genes expression / fibroblast activation marker (a-SMA) expression: PAAFs, RT-qPCR; for fibroblast activation marker (a-SMA) expression: TGF-b; for PAAFs dependent ECM remodelling: stimulation by pro-inflammatory cytokines (EDN1, IL6 or TGF-b)
# Excerpt: A-C) Pharmacological inhibition of GLS1 by either BPTES, C968 or CB839 blunted metabolic activation of PAAFs cultivated on stiff matrix as reflected by decreased glutaminolysis (A), glycolysis (B) and aspartate production (C). D-E) Pharmacological inhibition of GLS1 by either BPTES, C968 or CB839 decreased PAAFs dependent ECM remodelling upon stimulation by pro-inflammatory cytokines (EDN1, IL6 or TGF-b). […] G-H) Fibrilar collagen visualization (G) and quantification (H) by picrosirius red staining confirmed a decreased of ECM remodelling by activated PAAF (TGF-b) in presence of GLS1 inhibitors. I-M) PAAFs were cultivated upon indicated treatments. Cells were removed and pulmonary arterial endothelial cells (PAECs) were cultivated on the matrix synthesized by the PAAF. […] Data are expressed as mean±SEM (*P<0.05, § P<0.01, #P<0.001) of at least 3 independent experiments performed in triplicate. Paired samples were compared by 2-tailed Student's t test, while 1-way ANOVA and post-hoc Tukey's tests were used for group comparisons.
# (§1) Messenger RNAs were reverse transcribed using the Multiscript RT kit (Life Technologies) to generate cDNA. cDNA was amplified via fluorescently labeled Taqman primer sets using an Applied Biosystems 7900HT Fast Real Time PCR device. To specifically determine the relative expression of the two GLS1 isoforms KGA and GAC, TaqMan gene expression assays Hs01014019_m1 and Hs01022166_m1 were used respectively. Fold-change of RNA species was calculated using the formula (2^−ΔΔCt), normalized to RPLP0 expression.
# Picrosirius Red stain was achieved through the use of 5 μm paraffin sections stained with 0.1% Picrosirius Red (Direct Red80, Sigma-Aldrich) and counterstained with Weigert's hematoxylin to reveal fibrillar collagen. The sections were then serially imaged using with an analyzer and polarizer oriented parallel and orthogonal to each other. Microscope conditions (lamp brightness, condenser opening, objective, zoom, exposure time, and gain parameters) were maintained throughout the imaging of all samples. A minimal threshold was set on appropriate control sections for each experiment in which only the light passing through the orthogonally-oriented polarizers representing fibrous structures (i.e., excluding residual light from the black background) was included. The threshold was maintained for all images across all conditions within each experiment. The area of the transferred regions that was covered by the thresholded light was calculated and at least 10 sections/vessel per condition were averaged together (NIH ImageJ software). Targeted LC-MS/MS
# Lox = Lox activity in lungs of monocrotaline-exposed rats; assay type: in vivo, rat; conditions: daily BAPN or daily i.p. verteporfin 25 mg/kg, vs vehicle
# Experimental: Monocrotaline-treated rats: As we previously described (7, 8), male Sprague-Dawley rats (10-14 week old) were injected with 60 mg/kg monocrotaline at time 0; at 0-4 weeks post-exposure, right heart catheterization was performed followed by harvest of lung tissue for RNA extraction or paraffin embedding, as described below (section: Tissue harvest).
# To establish definitively whether periarteriolar ECM remodeling and YAP/TAZ modulate vascular cell metabolism in vivo, it was determined whether alteration of YAP/TAZ-dependent mechanotransduction directly controls glutaminolysis and PH development in the monocrotaline rat model. First, using a known pharmacologic inhibitor (β-aminoproprionitrile, BAPN) of Lox, the enzyme responsible for collagen crosslinking and consequent matrix stiffening, it was determined whether inhibition of ECM stiffening could prevent the metabolic changes and downstream PH manifestations observed in monocrotaline-exposed rats (FIG. 4A). […] Such metabolic effects further decreased vascular endothelial and smooth muscle proliferation, as reflected by in situ arteriolar staining (FIG. 4G), and ameliorated hemodynamic and histologic manifestations of PH, as measured by vascular remodeling and muscularization (FIG. 4G), and right ventricular systolic pressure (RVSP) (FIG. 4H).
# YAP/TAZ target genes = assay: RT-qPCR of YAP/TAZ target genes in CD31+ cells of monocrotaline-exposed rats; assay type: in vivo, rat; conditions: daily BAPN or daily i.p. verteporfin 25 mg/kg
# Experimental: as §1
# As previously reported (8, 11), lobes of lung tissue from a rat were diced with scissors, to which 200 μL of collagenase D solution (Sigma) was added for a final concentration of 2 mg/ml collagenase D in 4.8 mL HEPES buffer (pH=7.4). After incubation for 30 min at 37° C. with automated rotation, 20 μL of DNase I (Sigma, final concentration of 80 U/mL DNase I) was added and incubated on ice for 30 min. The solution was filtered twice by a 70 μm cell strainer (BD Biosciences) to yield a single cell suspension. After two rounds of PBS wash, cell pelleting, and resuspension, the ACK lysing buffer (Gibco) was used to remove erythrocytes. Remained cells were incubated 30 min at 4° C. with a mouse anti-rat-CD31 antibody (BD Pharmigen 555025). Cells were PBS washed twice and incubated 15 min with anti-mouse IgG1 MicroBeads (Miltenyi Biotec) according to the manufacturer protocol. Single CD31-positive cells were then collected using an autoMACS Pro Separator, per the manufacturer's instructions (Miltenyi Biotec). The purity (>95%) of CD31 positive cells was confirmed by flow cytometric analysis by a FACScan flow cytometer (BD Biosciences) after cells labeling with the FITC-conjugated anti-CD31 (ab33858, Abcam).
# To induce PH, male Sprague-Dawley rats (10-14 week old) were injected intraperitoneally with 60 mg/kg monocrotaline (Sigma-Aldrich). After two days, rats underwent intraperitoneal injection daily with 25 mg/kg of verteporfin (Active Biochemicals Company, Ltd) solubilized in 5% dimethyl sulfoxide (DMSO, Sigma-Aldrich). […]
SMILES,TGF-b-induced ECM related genes expression (PAAFs),fibroblast activation marker (a-SMA) expression (PAAFs),PAAFs dependent ECM remodelling (PAAFs),LOX activity in lungs (Lox),"CTGF and CYR61, YAP/TAZ target genes (YAP1-dependent gene expression) (YAP/TAZ target genes)","CTGF and CYR61, YAP/TAZ target genes (YAP1-dependent gene expression) (YAP/TAZ target genes; listed as verteporfin)"
O=C(Cc1cccc(OC(F)(F)F)c1)Nc1ccc(CCCCc2nnc(NC(=O)Cc3ccccn3)s2)nn1 [CB839],decreased,decreased,decreased,–,–,–
"CN(C)c1ccc(C2Nc3ccc4ccccc4c3C3=C2C(=O)CC(C)(C)C3)cc1Br (centres unmarked) [C968, 5-(3-Bromo-4-(dimethylamino)phenyl)-2,2-dimethyl-2,3,5,6-tetrahydrobenzo[a]phenanthridin-4(1H)-one]",decreased,decreased,decreased,–,–,–
"N#CCCN [BAPN, β-aminoproprionitrile]",–,–,–,decreased,decrease,–
"C=Cc1c(C)c2cc3nc(cc4[nH]c(cc5nc(cc1[nH]2)C(C)=C5CCC(=O)O)c(CCC(=O)OC)c4C)[C@@]1(C)C3=CC=C(C(=O)OC)[C@H]1C(=O)OC [Verteporfin, 3-[(23S,24R)-14-ethenyl-5-(3-methoxy-3-oxopropyl)-22,23-bis(methoxycarbonyl)-4,10,15,24-tetramethyl-25,26,27,28-tetraazahexacyclo[16.6.1.1^3,6.1^8,11.1^13,16.0^19,24]octacosa-1,3,5,7,9,11(27),12,14,16,18(25),19,21-dodecaen-9-yl]propanoic acid]",–,–,–,decreased,decrease,decreased
